Tests used:
[1] = system: Aβ40 in conditioned medium of cells stably expressing Amyloid Precursor Protein (APP); assay: In vitro BACE-1 cell-based assay (Aβ40 sandwich ELISA); conditions: read-out: IC50 IP (μM) BACE1 cell
Method in brief: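 Aβ40 in supernatants measured by time-resolved fluorescence sandwich ELISA, with pAb40 as capture and biotin-6E10 as detector antibody, each incubated at 4 °C.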

Recombinant Cat D = Recombinant Cat D (Homo sapiens (Human), UniProt P07339); assay: In vitro enzymatic Cathepsin D (Cat D) FRET assay; assay type: biochemical; conditions: read-out: IC50 IP (μM) CatD
Recombinant Cat D, sequence (P07339 65-412): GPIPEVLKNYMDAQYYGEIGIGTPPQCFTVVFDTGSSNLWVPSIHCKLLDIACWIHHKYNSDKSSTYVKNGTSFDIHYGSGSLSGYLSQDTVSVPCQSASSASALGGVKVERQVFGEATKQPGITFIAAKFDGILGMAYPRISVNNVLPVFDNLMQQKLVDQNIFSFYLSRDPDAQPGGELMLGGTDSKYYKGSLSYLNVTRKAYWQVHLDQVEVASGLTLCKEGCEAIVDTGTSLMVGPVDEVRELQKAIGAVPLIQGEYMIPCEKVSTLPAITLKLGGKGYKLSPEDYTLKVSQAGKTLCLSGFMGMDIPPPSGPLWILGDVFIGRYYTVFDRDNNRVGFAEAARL
Method in brief: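 Cleavage of a 20 nM fluorophore/quencher peptide by CHO-expressed recombinant Cat D proceeded for one hour at pH 3.5 (0.05 M citrate, 5 mM CHAPS, 10% DMSO final). Tris addition neutralized the pH to end the reaction. Fluorescence was then measured (ex 500 nm/em 580 nm).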

human recombinant BACE1 = human recombinant BACE1 (Homo sapiens (Human), UniProt P56817); assay: In vitro enzymatic BACE1 FRET assay; assay type: biochemical; conditions: read-out: IC50 IP (μM) BACE1 enzyme
human recombinant BACE1, sequence (P56817 46-501): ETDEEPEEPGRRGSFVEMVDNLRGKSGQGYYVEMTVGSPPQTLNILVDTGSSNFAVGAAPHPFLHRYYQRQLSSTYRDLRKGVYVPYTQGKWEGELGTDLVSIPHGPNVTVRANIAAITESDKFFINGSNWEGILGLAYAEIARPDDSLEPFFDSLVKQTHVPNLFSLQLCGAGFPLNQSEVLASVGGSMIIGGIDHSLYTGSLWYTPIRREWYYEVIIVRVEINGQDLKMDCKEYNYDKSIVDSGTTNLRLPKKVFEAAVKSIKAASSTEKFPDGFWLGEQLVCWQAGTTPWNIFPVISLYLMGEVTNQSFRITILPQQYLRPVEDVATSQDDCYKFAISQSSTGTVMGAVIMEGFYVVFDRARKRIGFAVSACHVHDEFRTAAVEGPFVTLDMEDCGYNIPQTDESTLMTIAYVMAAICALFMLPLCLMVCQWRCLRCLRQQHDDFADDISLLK
Method in brief: (§1)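 Reactions were initiated by adding 50 nM of a peptide carrying fluorophore and quencher on opposite sides of the cleavage site and ran for one hour. Tris buffer then brought the pH to neutrality, ending the reaction, and fluorescence was measured (488 nm excitation, 590 nm emission).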

human recombinant BACE2 = human recombinant BACE2 (Homo sapiens (Human), UniProt Q9Y5Z0); assay: In vitro enzymatic BACE2 FRET assay; assay type: biochemical; conditions: read-out: IC50 IP (μM) BACE2 enzyme
human recombinant BACE2, sequence (Q9Y5Z0 63-518): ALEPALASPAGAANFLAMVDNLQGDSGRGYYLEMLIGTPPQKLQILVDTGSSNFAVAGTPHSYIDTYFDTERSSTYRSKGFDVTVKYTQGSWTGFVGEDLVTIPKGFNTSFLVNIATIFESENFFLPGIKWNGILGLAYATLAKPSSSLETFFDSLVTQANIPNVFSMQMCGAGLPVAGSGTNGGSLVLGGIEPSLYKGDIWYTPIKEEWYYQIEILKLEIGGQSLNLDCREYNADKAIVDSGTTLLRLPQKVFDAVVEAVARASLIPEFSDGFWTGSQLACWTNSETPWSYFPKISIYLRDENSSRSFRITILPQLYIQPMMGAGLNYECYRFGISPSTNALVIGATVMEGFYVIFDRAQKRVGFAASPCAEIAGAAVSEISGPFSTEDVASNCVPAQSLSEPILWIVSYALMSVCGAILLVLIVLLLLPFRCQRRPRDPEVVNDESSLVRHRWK
Method in brief: as §1

Row | Structure (SMILES) | IC50 [1] [µM] | IC50 (Recombinant Cat D) [µM] | IC50 (human recombinant BACE1) [µM] | IC50 (human recombinant BACE2) [µM]
1 | COc1cnc2c(Nc3cc(F)c(F)c([C@@]4(C)N=C(N)S[C@H]5C[C@H]54)c3)nccc2n1 [Example 900, N-(3-((1S,5S,6S)-3-amino-5-methyl-2-thia-4-azabicyclo[4.1.0]hept-3-en-5-yl)-4,5-difluorophenyl)-2-methoxypyrido[3,4-b]pyrazin-5-amine] | 0.195 | 559 | 0.0324 | 0.0972
2 | CON(C)C(=O)[C@]12C[C@H]1[C@@](C)(c1cc(Nc3ncnc4cc(Cl)cnc34)cc(F)c1F)N=C(N)S2 [Example 901, (1S,5S,6S)-3-amino-5-(5-((7-chloropyrido[3,2-d]pyrimidin-4-yl)amino)-2,3-difluorophenyl)-N-methoxy-N,5-dimethyl-2-thia-4-azabicyclo[4.1.0]hept-3-ene-1-carboxamide] | 0.0167 | 603 | 0.00192 | 0.00203
3 | CC(=O)[C@]12C[C@H]1[C@@](C)(c1cc(Nc3ncnc4cc(Cl)cnc34)cc(F)c1F)N=C(N)S2 [Example 902, 1-((1S,5S,6S)-3-amino-5-(5-((7-chloropyrido[3,2-d]pyrimidin-4-yl)amino)-2,3-difluorophenyl)-5-methyl-2-thia-4-azabicyclo[4.1.0]hept-3-en-1-yl)ethanone] | 0.0796 | 479 | 0.0148 | 0.0125
4 | CC#CCOc1cnc2c(Nc3cc(F)c(F)c([C@@]4(C)N=C(N)S[C@@]5(COC)C[C@H]54)c3)nccc2c1 [Example 903, N-(3-((1S,5S,6S)-3-amino-1-(methoxymethyl)-5-methyl-2-thia-4-azabicyclo[4.1.0]hept-3-en-5-yl)-4,5-difluorophenyl)-3-(2-butyn-1-yloxy)-1,7-naphthyridin-8-amine] | 0.00785 | 1220 | 0.00195 | 0.109
5 | CC(=O)[C@]12C[C@H]1[C@@](C)(c1cc(Nc3ncnc4cc(C#N)cnc34)cc(F)c1F)N=C(N)S2 [Example 904, 4-((3-((1S,5S,6S)-1-acetyl-3-amino-5-methyl-2-thia-4-azabicyclo[4.1.0]hept-3-en-5-yl)-4,5-difluorophenyl)amino)pyrido[3,2-d]pyrimidine-7-carbonitrile] | 0.0132 | 380 | 0.0141 | 0.0355
6 | CC(=O)[C@]12C[C@H]1[C@@](C)(c1cc(NC(=O)c3ccc(Cl)cn3)cc(F)c1F)N=C(N)S2 [Example 906, N-(3-((1S,5S,6S)-1-acetyl-3-amino-5-methyl-2-thia-4-azabicyclo[4.1.0]hept-3-en-5-yl)-4,5-difluorophenyl)-5-chloro-2-pyridinecarboxamide] | 0.014 | 693 | 0.00404 | 0.00174
7 | C[C@H](O)[C@]12C[C@H]1[C@@](C)(c1cc(Nc3ncnc4cc(C#N)cnc34)cc(F)c1F)N=C(N)S2 [Example 907, 4-((3-((1S,5S,6S)-3-amino-1-(1-hydroxyethyl)-5-methyl-2-thia-4-azabicyclo[4.1.0]hept-3-en-5-yl)-4,5-difluorophenyl)amino)pyrido[3,2-d]pyrimidine-7-carbonitrile] | 0.00413 | 381 | 0.00747 | 0.0102
8 | C[C@@H](O)[C@]12C[C@H]1[C@@](C)(c1cc(Nc3ncnc4cc(C#N)cnc34)cc(F)c1F)N=C(N)S2 [Example 908] | 0.00812 | 360 | 0.00801 | 0.0255
9 | CC(C)(O)[C@]12C[C@H]1[C@@](C)(c1cc(Nc3ncnc4cc(C#N)cnc34)cc(F)c1F)N=C(N)S2 [Example 909, 4-((3-((1S,5S,6S)-3-amino-1-(1-hydroxy-1-methylethyl)-5-methyl-2-thia-4-azabicyclo[4.1.0]hept-3-en-5-yl)-4,5-difluorophenyl)amino)pyrido[3,2-d]pyrimidine-7-carbonitrile] | 0.0144 | 6.84 | 0.0257 | 0.183
10 | C#CCOc1cnc2c(Nc3cc(F)c(F)c([C@@]4(C)N=C(N)S[C@@]5(C(=O)N(C)C)C[C@H]54)c3)nccc2n1 [Example 912, (1S,5S,6S)-3-amino-5-(2,3-difluoro-5-((2-(2-propyn-1-yloxy)pyrido[3,4-b]pyrazin-5-yl)amino)phenyl)-N,N,5-trimethyl-2-thia-4-azabicyclo[4.1.0]hept-3-ene-1-carboxamide] | 0.000795 | > 400 | 0.000467 | 0.00101
11 | C#CCOc1cnc(C(=O)Nc2cc(F)c(F)c([C@@]3(C)N=C(N)S[C@@]4(C(=O)NC)C[C@H]43)c2)cn1 [Example 914, (1S,5S,6S)-3-amino-5-(2,3-difluoro-5-(((5-(2-propyn-1-yloxy)-2-pyrazinyl)carbonyl)amino)phenyl)-N,5-dimethyl-2-thia-4-azabicyclo[4.1.0]hept-3-ene-1-carboxamide] | 0.000534 | 79.4 | 0.000464 | 0.0108
12 | C#CCOc1cnc2c(Nc3cc(F)c(F)c([C@@]4(C)N=C(N)S[C@@]5(C#N)C[C@H]54)c3)nccc2n1 [Example 916, (1S,5S,6S)-3-amino-5-(2,3-difluoro-5-((2-(2-propyn-1-yloxy)pyrido[3,4-b]pyrazin-5-yl)amino)phenyl)-5-methyl-2-thia-4-azabicyclo[4.1.0]hept-3-ene-1-carbonitrile] | 0.00974 | 84.2 | 0.000515 | 0.00399
13 | C#CCOc1cnc2c(Nc3cc(F)c(F)c([C@@]4(C)N=C(N)S[C@@]5(C(N)=O)C[C@H]54)c3)ncnc2c1 [Example 917, (1S,5S,6S)-3-amino-5-(2,3-difluoro-5-((7-(2-propyn-1-yloxy)pyrido[3,2-d]pyrimidin-4-yl)amino)phenyl)-5-methyl-2-thia-4-azabicyclo[4.1.0]hept-3-ene-1-carboxamide] | 0.000857 | 373 | 0.000633 | 0.0355
14 | C[C@]1(c2cc(Nc3ncnc4cc(OCc5ncco5)cnc34)cc(F)c2F)N=C(N)S[C@@]2(C(N)=O)C[C@H]21 [Example 918, (1S,5S,6S)-3-amino-5-(2,3-difluoro-5-((7-(1,3-oxazol-2-ylmethoxy)pyrido[3,2-d]pyrimidin-4-yl)amino)phenyl)-5-methyl-2-thia-4-azabicyclo[4.1.0]hept-3-ene-1-carboxamide] | 0.000733 | 86.9 | 0.000861 | 0.0389
15 | C#CCOc1cnc(C(=O)Nc2cc(F)c(F)c([C@@]3(C)N=C(N)S[C@@]4(C(N)=O)C[C@H]43)c2)cn1 [Example 919, (1S,5S,6S)-3-amino-5-(2,3-difluoro-5-(((5-(2-propyn-1-yloxy)-2-pyrazinyl)carbonyl)amino)phenyl)-5-methyl-2-thia-4-azabicyclo[4.1.0]hept-3-ene-1-carboxamide] | 0.000298 | 21.2 | 0.000199 | 0.00428
16 | CC#CCOc1cnc2c(Nc3cc(F)c(F)c([C@@]4(C)N=C(N)S[C@@]5(C(N)=O)C[C@H]54)c3)nccc2n1 [Example 920, (1S,5S,6S)-3-amino-5-(5-((2-(2-butyn-1-yloxy)pyrido[3,4-b]pyrazin-5-yl)amino)-2,3-difluorophenyl)-5-methyl-2-thia-4-azabicyclo[4.1.0]hept-3-ene-1-carboxamide] | 0.000644 | 1080 | 0.000201 | 0.00604
17 | CN(C)C(=O)[C@]12C[C@H]1[C@@](C)(c1cc(NC(=O)c3cnc(OCC(F)(F)C(F)F)cn3)cc(F)c1F)N=C(N)S2 [Example 922, (1S,5S,6S)-3-amino-5-(2,3-difluoro-5-(((5-(2,2,3,3-tetrafluoropropoxy)-2-pyrazinyl)carbonyl)amino)phenyl)-N,N,5-trimethyl-2-thia-4-azabicyclo[4.1.0]hept-3-ene-1-carboxamide] | 0.00155 | 1090 | 0.00155 | 0.00839
18 | CN(C)C(=O)[C@]12C[C@H]1[C@@](C)(c1cc(Nc3ncnc4cc(OCc5ncco5)cnc34)cc(F)c1F)N=C(N)S2 [Example 923, (1S,5S,6S)-3-amino-5-(2,3-difluoro-5-((7-(1,3-oxazol-2-ylmethoxy)pyrido[3,2-d]pyrimidin-4-yl)amino)phenyl)-N,N,5-trimethyl-2-thia-4-azabicyclo[4.1.0]hept-3-ene-1-carboxamide] | 0.000338 | 121 | 0.000863 | 0.00253
19 | C#C[C@H](C)Oc1cnc2c(Nc3cc(F)c(F)c([C@@]4(C)N=C(N)S[C@@]5(C(=O)N(C)C)C[C@H]54)c3)nccc2n1 [Example 925, (1S,5S,6S)-3-amino-5-(2,3-difluoro-5-((2-(((1S)-1-methyl-2-propyn-1-yl)oxy)pyrido[3,4-b]pyrazin-5-yl)amino)phenyl)-N,N,5-trimethyl-2-thia-4-azabicyclo[4.1.0]hept-3-ene-1-carboxamide] | 0.00308 | > 400 | 0.0014 | 0.00387

From patent publication US20160046618A1, “Cyclopropyl Fused Thiazin-2-Amine Compounds as Beta-Secretase Inhibitors and Methods of Use” (AMGEN INC., priority 2014, published 2016)
